Source: patent publication US10125184B2, “Apolipoprotein E polypeptides and their use” (priority 2011, dated 2018)
Ends that are not written are not given here. Peptide text beside a SMILES is read from it.

What was measured:
[1] = test system: JFH-1 HCVcc-Luc; conditions: for IC50: HCVcc infection of Huh7.5.1 cells
Method: FIGS. 1A-1C. […] (A) Schematic illustration of apoE protein domains and the amino acid sequences of hEP and mEP peptides. The amino acid sequences shown are hEP-1 (SEQ ID NO: 6) and mEP (SEQ ID NO: 20). […] Huh7.5.1 cells were infected with JFH-1 HCVcc-Luc (MOI˜0.5) in the presence of hEP or mEP for 2 hours. After removal of virus and peptides, cells were further incubated for 48 hours prior to luciferase assay. Data are presented as % inhibition relative to control infections in which cells were treated with DMSO (0%). Results are expressed as mean±standard deviation (s.d.) (n=3). (C). Huh7.5.1 cells were treated with hEP or DMSO at indicated doses for 48 hours. The effect of hEP on cell viability was measured by a CellTiter Glo assay kit.
FIGS. 7A-7E. Mapping the anti-viral activity of hEP. In (A) and (B), HCVcc-luc was first mixed with indicated peptides (20 μg/ml, 2.7 μM) and then incubated with Huh7.5.1 cells for two hours at 37° C. to initiate infection. After additional 48 hours incubation, luciferase activity was measured. Results are presented as fold of inhibition relative to infections containing DMSO (n=5, mean±sd). (C) 20 μg of hEP-2 or hEP-2/ΔCys were resuspended in PBS and kept at room temperature for 30 minutes. Peptides were then mixed with 2×SDS-sample buffer without DTT and boiled for 5 minutes. Alternatively, samples were simply left unboiled or mixed with sample buffer containing DTT (2 mM). Peptide samples were then subjected to electrophoresis on a 16% tricine non-reducing gel (Invitrogen). […] (D) and (E) Mass spectrometric analysis of hEP-2 or hEP-2/ΔCys.
Detailed procedures involving the production and use of HCVpp and HCVcc have been published elsewhere (Liu et al., J Virol 2009; 83:2011-2014; Yang et al., Hepatology 2008; 48:1396-1403; Yang et al., J Biol Chem 2008; 283:8643-8653). Production procedure of HCVcc expressing firefly luciferase that was inserted between NS5A and NS5B (JFH-1 strain) was described elsewhere (Liu et al., Virology 2010; 407:160-170). Unless otherwise indicated, viruses were typically added to cells for two hours before removal. Cells were incubated for additional 48 hours followed by luciferase assay. When purification was needed, HCVcc were subjected to ultracentrifugation (SW41, 28,000×g) for 4 hours through a 20% sucrose cushion. Deidentified human sera, collected from five patients containing high-titer HCV (HCVser), were obtained.

[2] = physchem
[3] = test system: HCVcc-luc; experiment: Attachment versus post-attachment inhibition assay; format: cell-based, Hepatitis C virus; conditions: heparin 200 μg/ml, anti-CD81 5 μg/ml, hEP 20 μg/ml, bafilomycin A1 10 nM
Method: FIGS. 5A-5D. hEP inhibits HCV entry at the attachment step. (A) HCVcc-luc was first mixed with either scrambled peptide or hEP-2 (20 μg/ml) for one hour at room temperature. In Group 1, mixed virus was directly added to Huh7.5.1 cells, whereas in Group 2, virus was purified through ultracentrifuge at 28,000×g for 4 hours in order to remove peptide, and then used to infect Huh7.5.1 cells. **p<0.005. (B) The kinetics of hEP- and bafilomycin A1-mediated inhibition were determined by time-of-addition assays, as described in the examples section. Fitted lines represent sigmoidal time-dependent curves (mean of n=3; error bars, s.d.). (C) HCVcc-Luc was added to Huh7.5.1 cells at 4° C. and incubated for 1.5 hrs. Unbound virus was removed by 2 washes with cold media, fresh media was added, and the cells were shifted to 37° C. to allow synchronous infection to proceed. Heparin (200 μg/ml), anti-CD81 monoclonal antibody (5 μg/ml), hEP (20 μg/ml), or bafilomycin A1 (10 nM) were present in the media either continuously, during the 4° C. incubation only (attachment), or during the 37° C. incubation phase only (post-attachment). % Inhibition was calculated as 100-percent infection relative to control infections containing DMSO or an isotype antibody control containing 0.01% sodium azide (for anti-CD81 only) (mean of n=3; error bars, s.d.). (D) The effects of hEP (2.7 μM) or scrambled peptide on HCV binding were determined as described in the examples section. Results were calculated as relative RNA copies with numbers obtained from the scrambled peptide treated wells set to 100 (mean of n=3; error bars, s.d.). **p<0.005.
To investigate the mechanistic action of hEP, three sets of experiments were conducted. First, hEP-2 (SEQ ID NO: 9) or scrambled peptide-treated HCVcc were purified through ultracentrifugation to remove the peptide and then used to infect naïve Huh7.5.1 cells. […] Second, to determine the kinetics of inhibition, a time-of-addition experiment was conducted. HCV remained sensitive to bafilomycin A1, a fusion inhibitor that prevents endosome acidification, until 3 hours after the 37° C. temperature shift (FIG. 5B), which is consistent with previous reports (Koutsoudakis et al., J Virol 2006; 80:5308-5320). […] In order to determine whether hEP-2 (SEQ ID NO: 9) blocks infection at the initial attachment step or a downstream event in the HCV entry process, hEP-2 (SEQ ID NO: 9) was either added together with HCVcc to cells during the 4° C. attachment step only, and then removed prior to shifting the temperature to 37° C., or added only after the temperature shift. As a positive control, hEP-1 was present during the entire course of the experiment. […] Finally, the direct binding of virions to cell surface was measured using a real-time PCR based assay.

[4] = DMPC binding assay (turbidity OD490nm); conditions: reduction (percentage) of turbidity (OD490nm) of DMPC solution, plateau 10 minutes after addition of peptide
Method: FIGS. 3A-3C. Both hEP and mEP mediate plasma cholesterol clearance through hepatic lipoprotein receptors. (A) DMPC binding assay was conducted as described in the examples section. The turbidity of DMPC vesicle solution was monitored by OD490 nm. The curves were representative of two independent experiments. (B) HEK293T cells were loaded with DiI-LDL (5 μg/ml) along with apoE peptide-DMPC particles which competed with DiI-LDL for LDLR binding and LDLR-mediated endocytosis (for 30 min) n=3 for each group. (C) Each peptide (100 μg in 100 μl PBS) was retro-orbitally injected into 6-month-old apoE−/− mice (two mice each group). PBS (100 μl) was injected into two other mice as control. Before (set as 0 min time point) and 5 min, 30 min, 1 h, 2 h, and 4 h after the peptide or PBS injection, 30 μl blood samples were drawn for plasma cholesterol measurement using total Cholesterol Reagent Kit (Raichem, San Diego, Calif.).
1,2-dimyristoyl-sn-glycero-3-phosphatidylcholine (DMPC) (Avanti Polar Lipids Inc., Alabaster, Ala.) was dissolved in chloroform: methanol (3:1, v/v). It was dried thoroughly under a stream of N2. The dried lipid sample was dispersed in pre-warmed buffer (10 mM Tris-HCl, pH7.2; 150 mM NaCl; 0.5 mM EDTA) to final lipid concentration of 10 mg/ml, vortexed for 1 min, and sonicated 10 times at lowest power for 10 seconds at 24° C. The peptide solution, lipid solution and buffer were all maintained at 23.9° C. One milliliter buffer and 250 μg (25 μl lipid solution) were added in a quartz cuvette, and let equilibrate for 10 min, resulting in a turbid DMPC vesicle solution. Peptide solution (250 μg in 100 μl) was then added to turbid solution in the cuvette, the solution was mixed immediately, and the change of turbidity was monitored by OD at 490 nm as a function of time. If the peptide binds to DMPC vesicles, the large DMPC vesicles will be transformed into smaller DMPC-peptide particles, reducing the turbidity of the solution.

Compound | IC50 [1] [µM] | solubility [2] [µg/mL] | other results
CVRLASHLRKLRKRLLRDADDL [hEP-4] | > 10 | < 220 | –
CEEIRARLSTHLRKMRKRLMRDADDLQKRLAVY [mEP-2] | > 10 | > 220 | –
CC(C)C[C@H](NC(=O)[C@H](CC(=O)O)NC(=O)[C@H](CC(=O)O)NC(=O)[C@H](C)NC(=O)[C@H](CC(=O)O)NC(=O)[C@H](CCCNC(=N)N)NC(=O)[C@H](CC(C)C)NC(=O)[C@H](CC(C)C)NC(=O)[C@H](CCCNC(=N)N)NC(=O)[C@H](CCCCN)NC(=O)[C@H](CCCNC(=N)N)NC(=O)[C@H](CC(C)C)NC(=O)[C@H](CCCCN)NC(=O)[C@H](CCCNC(=N)N)NC(=O)[C@H](CC(C)C)NC(=O)[C@H](Cc1c[nH]cn1)NC(=O)[C@H](CO)NC(=O)[C@H](C)NC(=O)[C@H](CC(C)C)NC(=O)[C@H](CCCNC(=N)N)NC(=O)[C@@H](NC(=O)[C@H](CCCNC(=N)N)NC(=O)[C@H](CC(C)C)NC(=O)[C@H](CCC(=O)O)NC(=O)[C@@H](N)CCC(=O)O)C(C)C)C(=O)O [hEP-8] | > 10 | – | –
LRVRLASHLRKLRKRLLRDADDLQKRLAVY [hEP-7] | > 10 | – | –
CVDRYEARLRARALKDRQKRLLKELSLLVRHLD [Scrambled, reference compound] | > 10 | > 220 | –
CC(C)C[C@H](NC(=O)[C@H](CC(C)C)NC(=O)[C@H](CCCNC(=N)N)NC(=O)[C@H](CCCCN)NC(=O)[C@H](CCCNC(=N)N)NC(=O)[C@H](CC(C)C)NC(=O)[C@H](CCCCN)NC(=O)[C@H](CCCNC(=N)N)NC(=O)[C@H](CC(C)C)NC(=O)[C@@H](N)CS)C(=O)N[C@@H](CCCNC(=N)N)C(=O)N[C@@H](CS)C(=O)O [hEP-12, CLRKLRKRLLRC] (H-CLRKLRKRLLRC-OH; N-terminus and C-terminus assumed) | > 10 | < 220 | –
VRLASHLRKLRKRLLRDADDLIRLQAEAFQARLKSWFEPLV [hEP-6] | > 10 | – | –
heparin [reference compound] | – | – | Inhibition when present during the 4° C. attachment step only [3]: predominant
EELRVRLASHLRKLRKRLLRDADDLQKRLAVY [hEP-2/ΔCys] | > 10 | > 220 | –
CC[C@H](C)[C@H](NC(=O)[C@@H](N)CS)C(=O)N[C@@H](CCCNC(=N)N)C(=O)N[C@@H](CC(C)C)C(=O)N[C@@H](CCC(N)=O)C(=O)N[C@@H](C)C(=O)N[C@@H](CCC(=O)O)C(=O)N[C@@H](C)C(=O)N[C@@H](Cc1ccccc1)C(=O)N[C@@H](CCC(N)=O)C(=O)N[C@@H](C)C(=O)N[C@@H](CCCNC(=N)N)C(=O)N[C@@H](CC(C)C)C(=O)N[C@@H](CCCCN)C(=O)N[C@@H](CO)C(=O)N[C@@H](Cc1c[nH]c2ccccc12)C(=O)N[C@@H](Cc1ccccc1)C(=O)N[C@@H](CCC(=O)O)C(=O)N1CCC[C@H]1C(=O)N[C@@H](CC(C)C)C(=O)N[C@H](C(=O)O)C(C)C [hEP-5] | > 10 | – | –
CEEQAQQIRLQAEAFQARLKSWFEPLVEDM [hEP-3] | – | < 220 | Inhibition of HCVcc infection/entry (in words) ([1]; Huh7.5.1 cells): dramatically reduced ability to inhibit HCVcc entry; DMPC binding [4]: + (+, reduction 25-50%)
CEELRVRLASHLRKLRKRLLRDADDLQKRLAVY [hEP-2] | 0.5 | > 220 | –
CVRLASHLRKLRKRLLRDADDLQKRLAVY [hEP-10] | 0.8 | > 220 | –
CC(C)C[C@H](NC(=O)[C@H](CC(=O)O)NC(=O)[C@H](CC(=O)O)NC(=O)[C@H](C)NC(=O)[C@H](CC(=O)O)NC(=O)[C@H](CCCNC(=N)N)NC(=O)[C@H](CC(C)C)NC(=O)[C@H](CC(C)C)NC(=O)[C@H](CCCNC(=N)N)NC(=O)[C@H](CCCCN)NC(=O)[C@H](CCCNC(=N)N)NC(=O)[C@H](CC(C)C)NC(=O)[C@H](CCCCN)NC(=O)[C@H](CCCNC(=N)N)NC(=O)[C@H](CC(C)C)NC(=O)[C@H](Cc1c[nH]cn1)NC(=O)[C@H](CO)NC(=O)[C@H](C)NC(=O)[C@H](CC(C)C)NC(=O)[C@H](CCCNC(=N)N)NC(=O)[C@@H](NC(=O)[C@H](CCCNC(=N)N)NC(=O)[C@H](CC(C)C)NC(=O)[C@@H](N)CS)C(C)C)C(=O)O [hEP-11] | 4 | < 220 | –
VRLASHLRKLRKRLLRDADDLQKRLAVY [hEP-9] | > 10 | – | –
